Measurements: PubChem BioAssay AID248 (DTP/NCI, 2004)
Where “and” joins values, the source holds several entries; their conditions need not be identical. Equal entries are not always repeated. Inconclusive results and toxic doses are left out. Rule as the data show it: active = T/C of 150% or more; inactive = T/C below 125%.

Tested on: L1210 leukemia ip in BDF1 mice, survival T/C
Test: NCI In Vivo Anticancer Drug Screen. Data for tumor model L1210 Leukemia (intraperitoneal) in B6D2F1 (BDF1) mice
Conditions: endpoint: mean survival time, higher = longer survival
In short: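 Ratio derived from survival: compound-dosed mice over vehicle-dosed mice, all bearing a transplantable tumor.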

[1] = dose: 100.0 mg/kg/injection, schedule: Q04DX003 (ip), vehicle: saline with Tween-80
[2] = dose: 200.0 mg/kg/injection, schedule: Q04DX003 (ip), vehicle: saline with Tween-80
[3] = dose: 100.0 mg/kg/injection, schedule: Q01DX001 (ip), vehicle: saline
[4] = dose: 200.0 mg/kg/injection, schedule: Q01DX001 (ip), vehicle: saline
[5] = dose: 400.0 mg/kg/injection, schedule: Q01DX001 (ip), vehicle: saline
[6] = dose: 100.0 mg/kg/injection, schedule: Q01DX001 (ip), vehicle: carboxymethylcellulose (CMC)
[7] = dose: 200.0 mg/kg/injection, schedule: Q01DX001 (ip), vehicle: carboxymethylcellulose (CMC)
[8] = dose: 400.0 mg/kg/injection, schedule: Q01DX001 (ip), vehicle: carboxymethylcellulose (CMC)
[9] = dose: 100.0 mg/kg/injection, schedule: Q01DX001 (ip), vehicle: other
[10] = dose: 200.0 mg/kg/injection, schedule: Q01DX001 (ip), vehicle: other
[11] = dose: 400.0 mg/kg/injection, schedule: Q01DX001 (ip), vehicle: other
[12] = dose: 200.0 mg/kg/injection, schedule: Q01DX009 (ip), vehicle: saline with Tween-80
[13] = dose: 400.0 mg/kg/injection, schedule: Q01DX009 (ip), vehicle: saline with Tween-80
[14] = dose: 100.0 mg/kg/injection, schedule: Q01DX009 (ip), vehicle: Klucel (hydroxypropylcellulose) (HPC)
[15] = dose: 100.0 mg/kg/injection, schedule: Q04DX003 (ip), vehicle: Klucel (hydroxypropylcellulose) (HPC)
[16] = dose: 200.0 mg/kg/injection, schedule: Q01DX009 (ip), vehicle: Klucel (hydroxypropylcellulose) (HPC)
[17] = dose: 200.0 mg/kg/injection, schedule: Q04DX003 (ip), vehicle: Klucel (hydroxypropylcellulose) (HPC)
[18] = dose: 400.0 mg/kg/injection, schedule: Q04DX003 (ip), vehicle: Klucel (hydroxypropylcellulose) (HPC)
[19] = dose: 100.0 mg/kg/injection, schedule: Q01DX001 (ip), vehicle: saline with Tween-80
[20] = dose: 200.0 mg/kg/injection, schedule: Q01DX001 (ip), vehicle: saline with Tween-80
[21] = dose: 400.0 mg/kg/injection, schedule: Q01DX001 (ip), vehicle: saline with Tween-80
[22] = dose: 400.0 mg/kg/injection, schedule: Q01DX009 (ip), vehicle: Klucel (hydroxypropylcellulose) (HPC)

Measured: T/C

CC(C)N(CCCO)C(C)C
inactive: dose: 50.0 mg/kg/injection, schedule: Q01DX009 (ip), vehicle: saline 95 % of control | dose: 100.0 mg/kg/injection, schedule: Q01DX009 (ip), vehicle: saline 93 % of control | [1] 95 % of control | dose: 200.0 mg/kg/injection, schedule: Q01DX009 (ip), vehicle: saline 95 % of control | [2] 97 % of control

C/C=C1/C(=O)O[C@]23C=C[C@@H]4C(C(=O)OC)=CO[C@H](O[C@@H]12)[C@@H]43
inactive: [3] 104 % of control | [4] 103 % of control | [5] 98 % of control

O=C(c1ccccc1)C1(Br)CCC1
inactive: dose: 100.0 mg/kg/injection, schedule: Q01DX009 (ip), vehicle: saline sonified 101 % of control | dose: 200.0 mg/kg/injection, schedule: Q01DX009 (ip), vehicle: saline sonified 97 % of control | dose: 400.0 mg/kg/injection, schedule: Q01DX009 (ip), vehicle: saline sonified 101 % of control

O=P(NO)(c1ccccc1)c1ccccc1
inactive: [6] 92 % of control | [7] 95 % of control | [8] 95 % of control

CCC(=O)c1ccc(N=Nc2c(N)nc(N)[nH]c2=O)cc1
inactive: [6] 101 % of control | [7] 108 % of control | [8] 103 % of control

CNC(=O)c1ccccc1-c1ccccc1C(=O)NC
inactive: [9] 102 % of control | [10] 102 % of control | [11] 98 % of control

COc1cc2ccc(C(N)=O)cc2cc1OC
inactive: [9] 98 % of control | dose: 100.0 mg/kg/injection, schedule: Q01DX009 (ip), vehicle: saline with Tween-80 92 % of control | dose: 100.0 mg/kg/injection, schedule: Q04DX003 (ip), vehicle: other 96 % of control | [10] 102 % of control | [12] 95 % of control | dose: 200.0 mg/kg/injection, schedule: Q04DX003 (ip), vehicle: other 103 % of control | [11] 100 % of control | [13] 98 % of control | dose: 400.0 mg/kg/injection, schedule: Q04DX003 (ip), vehicle: other 103 % of control

CC(=O)NCCCOc1ccc([N+](=O)[O-])cc1Cl
inactive: dose: 100.0 mg/kg/injection, schedule: Q01DX001 (ip), vehicle: Klucel (hydroxypropylcellulose) (HPC) 100 % of control | [14] 102 % of control | [15] 101 % of control | dose: 200.0 mg/kg/injection, schedule: Q01DX001 (ip), vehicle: Klucel (hydroxypropylcellulose) (HPC) 101 % of control | [16] 110 % of control and 112 % of control | [17] 113 % of control | [18] 103 % of control

CC(=O)C1COC(O)C1C (configuration not stated)
inactive: dose: 0.15 mg/kg/injection, schedule: Q01DX009 (ip), vehicle: saline 102 % of control | dose: 0.31 mg/kg/injection, schedule: Q01DX009 (ip), vehicle: saline 100 % of control | dose: 0.62 mg/kg/injection, schedule: Q01DX009 (ip), vehicle: saline 105 % of control | dose: 1.25 mg/kg/injection, schedule: Q01DX009 (ip), vehicle: saline 107 % of control | dose: 2.5 mg/kg/injection, schedule: Q01DX009 (ip), vehicle: saline 112 % of control | dose: 5.0 mg/kg/injection, schedule: Q01DX001 (ip), vehicle: saline 101 % of control | dose: 10.0 mg/kg/injection, schedule: Q01DX001 (ip), vehicle: saline 113 % of control

O=C(NCCS)c1ccc(C(=O)NCCS)cc1
inactive: dose: 100.0 mg/kg/injection, schedule: Q04DX002 (ip), vehicle: Klucel (hydroxypropylcellulose) (HPC) 95 % of control | dose: 200.0 mg/kg/injection, schedule: Q04DX002 (ip), vehicle: Klucel (hydroxypropylcellulose) (HPC) 103 % of control | dose: 400.0 mg/kg/injection, schedule: Q04DX002 (ip), vehicle: Klucel (hydroxypropylcellulose) (HPC) 103 % of control

BrCc1cc2ccccc2cc1CBr
inactive: dose: 12.5 mg/kg/injection, schedule: Q01DX009 (ip), vehicle: Klucel (hydroxypropylcellulose) (HPC) 98 % of control | dose: 25.0 mg/kg/injection, schedule: Q01DX009 (ip), vehicle: Klucel (hydroxypropylcellulose) (HPC) 96 % of control | dose: 25.0 mg/kg/injection, schedule: Q04DX003 (ip), vehicle: saline with Tween-80 100 % of control | dose: 50.0 mg/kg/injection, schedule: Q01DX009 (ip), vehicle: Klucel (hydroxypropylcellulose) (HPC) 93 % of control and 107 % of control | dose: 50.0 mg/kg/injection, schedule: Q04DX003 (ip), vehicle: saline with Tween-80 104 % of control | [1] 96 % of control

Cc1cc2[nH]c(=O)[nH]c2cc1C
inactive: [1] 98 % of control | [2] 88 % of control

CCOP(=O)(Nc1ccc2c(c1)Cc1cc([N+](=O)[O-])ccc1-2)OCC
inactive: dose: 50.0 mg/kg/injection, schedule: Q01DX001 (ip), vehicle: carboxymethylcellulose (CMC) 97 % of control | [6] 94 % of control | [7] 92 % of control | [8] 94 % of control

Nc1nc[nH]c1C(=O)NO
inactive: [3] 100 % of control | [4] 103 % of control | [5] 92 % of control

CC(C)(C)C1CCC2OC(C)(C(C)(C)C)CC(C(C)(C)C)C2C1 (configuration not stated)
inactive: [19] 100 % of control | [20] 100 % of control | [21] 95 % of control

Cc1ccc(N2C(N)=NC(N)=NC2(C)C)cc1
inactive: dose: 12.5 mg/kg/injection, schedule: Q01DX001 (ip), vehicle: saline 100 % of control | dose: 25.0 mg/kg/injection, schedule: Q01DX001 (ip), vehicle: saline 100 % of control

O=C(O)c1c[nH]c2c(Cl)cc(Cl)cc2c1=O
inactive: [4] 94 % of control | [5] 87 % of control

CCOc1c(Br)cc(N=Cc2ccc(N(CCCl)CCCl)c(OC)c2)cc1Br
inactive: dose: 44.0 mg/kg/injection, schedule: Q01DX001 (ip), vehicle: carboxymethylcellulose (CMC) 120 % of control | dose: 150.0 mg/kg/injection, schedule: Q01DX001 (ip), vehicle: carboxymethylcellulose (CMC) 123 % of control | [7] 104 % of control

O=C(CC(O)(C(F)(F)F)C(F)(F)F)c1ccccc1[N+](=O)[O-]
inactive: dose: 12.5 mg/kg/injection, schedule: Q01DX009 (ip), vehicle: DMSO 94 % of control | dose: 12.5 mg/kg/injection, schedule: Q04DX003 (ip), vehicle: DMSO 97 % of control | dose: 25.0 mg/kg/injection, schedule: Q01DX009 (ip), vehicle: DMSO 86 % of control | dose: 25.0 mg/kg/injection, schedule: Q04DX003 (ip), vehicle: DMSO 95 % of control | dose: 50.0 mg/kg/injection, schedule: Q04DX003 (ip), vehicle: DMSO 110 % of control | dose: 100.0 mg/kg/injection, schedule: Q04DX003 (ip), vehicle: DMSO 102 % of control

COC(=O)C1=C(C(=O)OC)C2C=CC1C1(C)C(=O)N(C)C21C (configuration not stated)
inactive: dose: 75.0 mg/kg/injection, schedule: Q04DX002 (ip), vehicle: Klucel (hydroxypropylcellulose) (HPC) 90 % of control | dose: 300.0 mg/kg/injection, schedule: Q04DX002 (ip), vehicle: Klucel (hydroxypropylcellulose) (HPC) 86 % of control

CN(C)C(=S)Oc1ccccc1C1(C)OCCO1
inactive: [19] 97 % of control | [20] 98 % of control | [21] 96 % of control

S=c1c2ccccc2nc2n1CCS2
inactive: [12] 92 % of control | [13] 87 % of control

O=C1OCC/C1=C/CCC/C=C1\CCOC1=O
inactive: [14] 101 % of control | [15] 100 % of control | [16] 102 % of control | [17] 94 % of control | [22] 88 % of control | [18] 92 % of control

CNC(=S)N/N=C/c1ccccn1
inactive: dose: 25.0 mg/kg/injection, schedule: Q04DX003 (ip), vehicle: Klucel (hydroxypropylcellulose) (HPC) 112 % of control | dose: 50.0 mg/kg/injection, schedule: Q04DX003 (ip), vehicle: Klucel (hydroxypropylcellulose) (HPC) 97 % of control | [15] 93 % of control | [17] 101 % of control

CCN(CC)c1ccc(N=Nc2cc(Cl)ccc2Cl)c(NC(=O)CSC(C)=O)c1
inactive: [14] 110 % of control | [16] 101 % of control | [22] 97 % of control
